Source: PMC12081877 (Nature Communications, 2025)

What was measured:
M^pro = settings: cited from earlier work
in vitro = settings: human, Caco-2, Caco-2 permeability Papp A to B

Row | SMILES | IC50 (M^pro) [nM] | Papp A→B (in vitro) [×10⁻⁶ cm/s]
1 | C[C@H](NC(=O)[C@@H](c1cccnc1)N(C(=O)C(Cl)Cl)c1ccc(-c2ccccc2)cc1)c1ccccc1 [Jun9-62-2R] | 430 | –
2 | Cn1cnc(Cn2c(=O)[nH]/c(=N\c3cc4cn(C)nc4cc3Cl)n(Cc3cc(F)c(F)cc3F)c2=O)n1 [Ensitrelvir] | – | 0.42
3 | CC(C)(C)[C@H](NC(=O)C(F)(F)F)C(=O)N1C[C@H]2[C@@H]([C@H]1C(=O)N[C@H](C#N)C[C@@H]1CCNC1=O)C2(C)C [Nirmatrelvir] | – | < 0.1
